Experimental data published in patent US10336768B2, “Pyrimidine compounds and methods using the same” (Yuma Therapeutics, Inc., priority 2014, dated 2019).

What follows are molecules tested on T1, His-tagged-Hsp90 (assay: Hsp90 biochemical assay (AlphaLISA)). Settings: IC50 class; AlphaLISA (primary assay); read-out: Hsp90 inhibitory activity.
T1 construct: fused on or other part: His tag (captured on Ni2+-coated beads)
Type: binding
Protocol: This assay employs biotinylated geldanamycin, His-tagged-Hsp90, and Ni^+2 coated beads. This assay is homogenous and miniaturized to 384-well plates. Measurement of binding activity was performed on an Envision reader. […] This assay is the primary assay for evaluating compounds of the invention.
For COc1ccc(Cl)c(-c2cc(Cl)nc(N)n2)c1 [Compound 78], the IC50 was 1000 to 4000 nM.
COc1cc(-c2cc(Cl)nc(N)n2)ccc1Cl [Compound 79] showed an IC50 of under 1000 nM.
With COc1cc(-c2cc(C)nc(N)n2)c(C(F)(F)F)cc1Cl [compound 1] the IC50 was over 10000 nM.
With Cc1cc(-c2cc(OC(C)C)c(Cl)cc2Cl)nc(N)n1 [compound 2] the IC50 was 1000 to 4000 nM.
Molecule CNc1nc(C)cc(-c2c(Cl)cc(Cl)c3c2CCO3)n1 [compound 3, 4-(5,7-Dichloro-2,3-dihydrobenzofuran-4-yl)-N,6-dimethylpyrimidin-2-amine] has an IC50 of over 10000 nM.
Cc1cc(-c2c(Cl)cc(Cl)c3c2CCO3)nc(N(C)C)n1 [compound 4, 4-(5,7-Dichloro-2,3-dihydrobenzofuran-4-yl)-N,N,6-trimethylpyrimidin-2-amine] was tested, and the IC50 was over 10000 nM.
COc1cc(-c2nc(N)nc3c2CCC3)c(Cl)cc1F [compound 11, 4-(2-chloro-4-fluoro-5-methoxyphenyl)-6,7-dihydro-5H-cyclopenta[d]pyrimidin-2-amine] showed an IC50 of 4000 to 10000 nM.
Nc1nc2c(c(-c3c(Cl)cc(Cl)c4c3CCO4)n1)CCCC2 [compound 15, 4-(5,7-dichloro-2,3-dihydrobenzofuran-4-yl)-5,6,7,8-tetrahydroquinazolin-2-amine] showed an IC50 of 4000 to 10000 nM.
Molecule CCNC(=O)N1Cc2nc(N)nc(-c3c(Cl)cc(Cl)c4c3CCO4)c2C1 [compound 17] has an IC50 of over 10000 nM.
Molecule Cn1ccc2c(-c3c(Cl)cc(Cl)c4c3CCO4)nc(N)nc21 [compound 30] has an IC50 of over 10000 nM.
For CCNC(=O)Cn1ccc2nc(N)nc(-c3c(Cl)cc(Cl)c4c3CCO4)c21 [compound 31], the IC50 was over 10000 nM.
CCNC(=O)Cn1ccc2c(-c3c(Cl)cc(Cl)c4c3CCO4)nc(N)nc21 [compound 32] showed an IC50 of over 10000 nM.
With CNc1cc(-c2c(Cl)cc(Cl)c3c2CCO3)nc(N)n1 [compound 33] the IC50 was 4000 to 10000 nM.
Work on COc1cc(-c2nc(N)nc(SC)n2)c(Cl)cc1Cl [compound 34] yielded an IC50 of under 1000 nM.
COc1cc(-c2cc(SC)nc(N)n2)c(Cl)cc1Cl [compound 35] was tested, and the IC50 was under 1000 nM.
In the case of COc1cc(-c2nc(N)nc(-c3cc(OC)c(Cl)cc3Cl)n2)c(Cl)cc1Cl [compound 37], the IC50 is reported as over 10000 nM.
Molecule COc1cc(-c2cc(C)nc(N)n2)c(Cl)cc1Cl [compound 38] has an IC50 of 1000 to 4000 nM.
Work on Nc1nc(Cl)cc(-c2c(Cl)cc(Cl)c3c2CCO3)n1 [compound 49, 4-chloro-6-(5,7-dichloro-2,3-dihydrobenzofuran-4-yl)pyrimidin-2-amine] yielded an IC50 of under 1000 nM.
Work on Nc1nc(-c2c(Cl)cc(Cl)c3c2CCO3)cc(C(F)(F)F)n1 [compound 50, 4-trifluoromethyl-6-(5,7-dichloro-2,3-dihydrobenzofuran-4-yl)pyrimidin-2-amine] yielded an IC50 of 1000 to 4000 nM.
In the case of CSc1cc(-c2c(Cl)cc(Cl)c3c2CCO3)nc(N)n1 [compound 51, 4-thiomethyl-6-(5,7-dichloro-2,3-dihydrobenzofuran-4-yl)pyrimidin-2-amine], the IC50 is reported as under 1000 nM.
For Nc1nc(Cl)c(N)c(-c2c(Cl)cc(Cl)c3c2CCO3)n1 [compound 52, 4-chloro-6-(5,7-dichloro-2,3-dihydrobenzofuran-4-yl)pyrimidine-2,5-diamine], the IC50 was under 1000 nM.
For Nc1nc(O)cc(-c2c(Cl)cc(Cl)c3c2CCO3)n1 [compound 53, 2-amino-6-(5,7-dichloro-2,3-dihydrobenzofuran-4-yl)pyrimidin-4-ol], the IC50 was over 10000 nM.
COC(=O)n1ccc2nc(N)nc(-c3c(Cl)cc(Cl)c4c3CCO4)c21 [compound 54, Methyl 2-amino-4-(5,7-dichloro-2,3-dihydrobenzofuran-4-yl)-5H-pyrrolo[3,2-d]pyrimidine-5-carboxylate] showed an IC50 of over 10000 nM.
Molecule Nc1nc(-c2c(Cl)cc(Cl)c3c2CCO3)c2[nH]cc(C=O)c2n1 [compound 56, 2-amino-4-(5,7-dichloro-2,3-dihydrobenzofuran-4-yl)-5H-pyrrolo[3,2-d]pyrimidine-7-carbaldehyde] has an IC50 of over 10000 nM.
COc1cc(-c2nc(N)nc3c(Br)c[nH]c23)c(Cl)cc1Cl [compound 57, 7-bromo-4-(2,4-dichloro-5-methoxyphenyl)-5H-pyrrolo[3,2-d]pyrimidin-2-amine] was tested, and the IC50 was over 10000 nM.
Nc1nc(-c2c(Cl)cc(Cl)c3c2CCO3)c2cc(C(=O)NCCN3CCCC3)sc2n1 [compound 58, 2-amino-4-(5,7-dichloro-2,3-dihydrobenzofuran-4-yl)-N-(2-(pyrrolidin-1-yl)ethyl)thieno[2,3-d]pyrimidine-6-carboxamide] gave an IC50 of under 1000 nM.
For N#CCCNC(=O)c1cc2c(-c3c(Cl)cc(Cl)c4c3CCO4)nc(N)nc2s1 [compound 59, 2-amino-N-(2-cyanoethyl)-4-(5,7-dichloro-2,3-dihydrobenzofuran-4-yl)thieno[2,3-d]pyrimidine-6-carboxamide], the IC50 was under 1000 nM.
With Nc1nc(-c2c(Cl)cc(Cl)c3c2CCO3)c2cc(C(=O)NCCO)sc2n1 [compound 60, 2-amino-4-(5,7-dichloro-2,3-dihydrobenzofuran-4-yl)-N-(2-hydroxyethyl)thieno[2,3-d]pyrimidine-6-carboxamide] the IC50 was under 1000 nM.
Nc1nc(-c2c(Cl)cc(Cl)c3c2CCO3)c2cc(C(=O)NCC(F)(F)F)sc2n1 [compound 61, 2-amino-4-(5,7-dichloro-2,3-dihydrobenzofuran-4-yl)-N-(2,2,2-trifluoroethyl)thieno[2,3-d]pyrimidine-6-carboxamide] was tested, and the IC50 was under 1000 nM.
For Nc1nc(-c2c(Cl)cc(Cl)c3c2CCO3)c2cc(C(=O)NC3CC3)sc2n1 [compound 62, 2-amino-N-cyclopropyl-4-(5,7-dichloro-2,3-dihydrobenzofuran-4-yl)thieno[2,3-d]pyrimidine-6-carboxamide], the IC50 was under 1000 nM.
In the case of CNC(=O)c1cc2c(-c3c(Cl)cc(Cl)c4c3CCO4)nc(N)nc2s1 [compound 63, 2-amino-4-(5,7-dichloro-2,3-dihydrobenzofuran-4-yl)-N-methylthieno[2,3-d]pyrimidine-6-carboxamide], the IC50 is reported as under 1000 nM.
In the case of COCCNC(=O)c1cc2c(-c3c(Cl)cc(Cl)c4c3CCO4)nc(N)nc2s1 [compound 64, 2-amino-4-(5,7-dichloro-2,3-dihydrobenzofuran-4-yl)-N-(2-methoxyethyl)thieno[2,3-d]pyrimidine-6-carboxamide], the IC50 is reported as under 1000 nM.
Molecule Nc1nc(-c2c(Cl)cc(Cl)c3c2CCO3)c2cc(C(=O)NC3CCC3)sc2n1 [compound 65, 2-amino-N-cyclobutyl-4-(5,7-dichloro-2,3-dihydrobenzofuran-4-yl)thieno[2,3-d]pyrimidine-6-carboxamide] has an IC50 of under 1000 nM.
CN(C)C(=O)c1cc2c(-c3c(Cl)cc(Cl)c4c3CCO4)nc(N)nc2s1 [compound 66, 2-amino-4-(5,7-dichloro-2,3-dihydrobenzofuran-4-yl)-N,N-dimethylthieno[2,3-d]pyrimidine-6-carboxamide] showed an IC50 of under 1000 nM.
Nc1nc(-c2c(Cl)cc(Cl)c3c2CCO3)c2cc(C(=O)NC3COC3)sc2n1 [compound 67, 2-amino-4-(5,7-dichloro-2,3-dihydrobenzofuran-4-yl)-N-(oxetan-3-yl)thieno[2,3-d]pyrimidine-6-carboxamide] gave an IC50 of under 1000 nM.
With Nc1nc(-c2c(Cl)cc(Cl)c3c2CCO3)c2cc(C(=O)N3CCOCC3)sc2n1 [compound 68, (2-amino-4-(5,7-dichloro-2,3-dihydrobenzofuran-4-yl)thieno[2,3-d]pyrimidin-6-yl)(morpholino)methanone] the IC50 was 1000 to 4000 nM.
Work on Nc1nc(-c2c(Cl)cc(Cl)c3c2CCO3)c2cc(C(=O)N3CCCC3)sc2n1 [compound 69, (2-amino-4-(5,7-dichloro-2,3-dihydrobenzofuran-4-yl)thieno[2,3-d]pyrimidin-6-yl)(pyrrolidin-1-yl)methanone] yielded an IC50 of 1000 to 4000 nM.
Molecule CN(CC(F)(F)F)C(=O)c1cc2c(-c3c(Cl)cc(Cl)c4c3CCO4)nc(N)nc2s1 [compound 70, 2-amino-4-(5,7-dichloro-2,3-dihydrobenzofuran-4-yl)-N-methyl-N-(2,2,2-trifluoroethyl)thieno[2,3-d]pyrimidine-6-carboxamide] has an IC50 of 4000 to 10000 nM.
In the case of CN(CCC#N)C(=O)c1cc2c(-c3c(Cl)cc(Cl)c4c3CCO4)nc(N)nc2s1 [compound 71, 2-amino-N-(2-cyanoethyl)-4-(5,7-dichloro-2,3-dihydrobenzofuran-4-yl)-N-methylthieno[2,3-d]pyrimidine-6-carboxamide], the IC50 is reported as under 1000 nM.
Work on CN(C(=O)c1cc2c(-c3c(Cl)cc(Cl)c4c3CCO4)nc(N)nc2s1)C1COC1 [compound 72, 2-amino-4-(5,7-dichloro-2,3-dihydrobenzofuran-4-yl)-N-methyl-N-(oxetan-3-yl)thieno[2,3-d]pyrimidine-6-carboxamide] yielded an IC50 of 1000 to 4000 nM.
With CN(C(=O)c1cc2c(-c3c(Cl)cc(Cl)c4c3CCO4)nc(N)nc2s1)C1CC1 [compound 74, 2-amino-N-cyclopropyl-4-(5,7-dichloro-2,3-dihydrobenzofuran-4-yl)-N-methylthieno[2,3-d]pyrimidine-6-carboxamide] the IC50 was 1000 to 4000 nM.
With CON(C)C(=O)c1cc2c(-c3c(Cl)cc(Cl)c4c3CCO4)nc(N)nc2s1 [compound 75, 2-amino-4-(5,7-dichloro-2,3-dihydrobenzofuran-4-yl)-N-methoxy-N-methylthieno[2,3-d]pyrimidine-6-carboxamide] the IC50 was under 1000 nM.
Molecule CCC(=O)c1cc2c(-c3c(Cl)cc(Cl)c4c3CCO4)nc(N)nc2s1 [compound 76, 1-(2-amino-4-(5,7-dichloro-2,3-dihydrobenzofuran-4-yl)thieno[2,3-d]pyrimidin-6-yl)propan-1-one] has an IC50 of under 1000 nM.
For CC(C)(O)c1cc2c(-c3c(Cl)cc(Cl)c4c3CCO4)nc(N)nc2s1 [compound 77, 2-(2-amino-4-(5,7-dichloro-2,3-dihydrobenzofuran-4-yl)thieno[2,3-d]pyrimidin-6-yl)propan-2-ol], the IC50 was 1000 to 4000 nM.

Same assay, conditions: known Hsp90 inhibitor, biotinylated geldanamycin; read-out: IC50 (AlphaLISA assay validation)
With CC(C)NCCCn1c(Sc2cc3c(cc2I)OCO3)nc2c(N)ncnc21 [PU-H71, reference compound] the IC50 was 60 nM.
